Data on ten molecules can be found in BindingDB's records for doi:10.1016/j.bmc.2006.08.003 (Hokuriku University, 2006).

The assay deals with T1, Lysosomal acid glucosylceramidase (Homo sapiens, UniProt P04062).
T1 sequence (P04062 whole entry): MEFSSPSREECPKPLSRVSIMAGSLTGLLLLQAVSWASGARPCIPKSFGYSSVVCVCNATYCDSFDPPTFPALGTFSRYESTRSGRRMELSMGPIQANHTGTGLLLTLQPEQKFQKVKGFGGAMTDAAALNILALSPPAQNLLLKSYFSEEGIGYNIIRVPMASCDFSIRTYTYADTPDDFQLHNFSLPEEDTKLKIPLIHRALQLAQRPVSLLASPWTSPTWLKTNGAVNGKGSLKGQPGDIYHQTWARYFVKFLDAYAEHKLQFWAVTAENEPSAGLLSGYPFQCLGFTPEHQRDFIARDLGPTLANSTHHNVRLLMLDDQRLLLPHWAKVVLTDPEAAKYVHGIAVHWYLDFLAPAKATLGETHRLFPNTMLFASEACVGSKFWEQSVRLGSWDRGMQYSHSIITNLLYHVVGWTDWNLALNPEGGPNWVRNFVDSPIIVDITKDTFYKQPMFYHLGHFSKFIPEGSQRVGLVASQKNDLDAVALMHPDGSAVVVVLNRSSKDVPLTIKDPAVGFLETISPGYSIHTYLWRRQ
As to the kind of experiment: In Vitro Enzyme Inhibition. The following applies: pH 5.5; 37 °C.

What is called IC50 is the concentration that inhibits the measured activity by half. The low end stands for higher potency, the high end for lower potency. A word on the Ki: it is the dissociation constant of the complex between target and ligand, obtained from inhibition or displacement. Read a low Ki as tighter binding. `CCCCCCN1C[C@H](O)[C@@H](O)[C@H](O)[C@H]1CO` [(2R,3R,4R,5S)-1-hexyl-2-(hydroxymethyl)piperidine-3,4,5-triol] gave a half-maximal inhibitory concentration (IC50) of 13 µM and a Ki of 5500 nM.
As for `CN1C[C@H](O)[C@@H](O)[C@H](O)[C@H]1CO` [(2R,3R,4R,5S)-2-(hydroxymethyl)-1-methylpiperidine-3,4,5-triol], the midpoint of inhibition, the IC50, lay at 150 µM.
The molecule `CCCCCCCCN1C[C@H](O)[C@@H](O)[C@H](O)[C@H]1CO` [(2R,3R,4R,5S)-2-(hydroxymethyl)-1-octylpiperidine-3,4,5-triol] gave an IC50 of 0.82 µM and a Ki of 420 nM.
As for `CCCN1C[C@H](O)[C@@H](O)[C@H](O)[C@H]1CO` [(2R,3R,4R,5S)-2-(hydroxymethyl)-1-propylpiperidine-3,4,5-triol], the IC50 worked out at 700 µM.
On the same count and under the same terms, the same measure for `C[C@H]1N[C@H](CO)[C@@H](O)[C@H](O)[C@H]1O` [(2R,3R,4R,5S,6R)-2-(hydroxymethyl)-6-methylpiperidine-3,4,5-triol]: 900 µM.
`CCCCCCCC[C@H]1N[C@H](CO)[C@@H](O)[C@H](O)[C@H]1O` [(2R,3R,4R,5S,6R)-2-(hydroxymethyl)-6-octylpiperidine-3,4,5-triol] had a half-inhibitory concentration (IC50) of 0.5 µM and a Ki of 280 nM.
`CCC[C@H]1N[C@H](CO)[C@@H](O)[C@H](O)[C@H]1O` [(2R,3R,4R,5S,6R)-2-(hydroxymethyl)-6-propylpiperidine-3,4,5-triol] came in with an IC50 of 400 µM.
As for `CCCC[C@H]1N[C@H](CO)[C@@H](O)[C@H](O)[C@H]1O` [(2R,3S,4R,5R,6R)-2-butyl-6-(hydroxymethyl)piperidine-3,4,5-triol], the Ki turned out to be 110000 nM.
Consider `CCCCCC[C@H]1N[C@H](CO)[C@@H](O)[C@H](O)[C@H]1O` [(2R,3S,4R,5R,6R)-2-hexyl-6-(hydroxymethyl)piperidine-3,4,5-triol], for which the midpoint of inhibition, the IC50, lay at 4.2 µM and affinity was put at a Ki of 2300 nM.
Taken in the same sequence, the figures for `CCCCCCCCC[C@H]1N[C@H](CO)[C@@H](O)[C@H](O)[C@H]1O` [CN-DNJ] were 0.27 µM and 200 nM.
